# Source: patent US20190054093A1, “TREATMENT OF SARCOPENIA WITH ECDYSTEROIDS” (priority 2014, published 2019)
# Assays:
# [1] = test system: C2C12 myotubes; assay: Protein synthesis by radio-labeled leucine incorporation in C2C12 myotubes (Example 3); assay type: cell-based, mouse
# [2] = test system: Caspase-3 expression in C2C12 myotubes; assay: Caspase 3 expression in C2C12 myotubes (quantitative RT-PCR, Example 4); assay type: cell-based, mouse; conditions: 24 hours; extracts and turkesterone 0.002, 0.02 and 2 ppm, 20HE 0.001, 0.01 and 1 ppm
# Protocol: Experiments similar to those in example 1 have been carried out with two other plant-derived, ecdysteroid-rich extracts. […] Cells between passages 3 and 10 were seeded at a density of 10,000 cells per cm^2. Cells were grown for 48 h until they reached 80-90% confluence. […] Cells were maintained at 37° C. in a humidified 5% CO2 incubator and medium was changed every other day.
# For RNA and protein extraction C2C12 myotubes were incubated with 0.002, 0.02 and 2 ppm of Rhaponticum carthamoides extract (RCE) and Cyanotis arachnoidea extract (CAE) or 0.001, 0.01 and 1 ppm of 20-hydroxyecdysone or 0.002, 0.02 and 2 ppm of Turkesterone for 24 hours. These two latter served as positive controls. RNA and protein were extracted using All Prep RNA/Protein Kit (Qiagen, Spain). RNA was stored at −80° C. and protein at −20° C. until further use. Total RNA was quantified using a fluorometric method with Quant-iT kit (Invitrogen, Spain). The cDNA was reverse-transcribed from the RNA extract using RT^2First Stand cDNA kit (Qiagen, Spain). Quantitative real-time RT-PCR for Caspase-3 and Myostatin were carried out using a MX3005P Q-PCR System (Agilent Technologies) and SYBR-Green/ROX detection. The housekeeping gene used was Actb and Mouse XpressRef Universal total RNA (Qiagen, Spain) as a positive control. […] The fold change in gene expression was calculated with ΔΔCt Method.
# [3] = test system: C2C12 myotubes; assay type: cell-based, mouse; conditions: dose response experiment; 16 h
# Protocol: After cells reached 80-90% confluence (72 hours post-seeding) the media was replaced with differentiation media (DM): DMEM containing 2% horse serum (PAA; GE HealthCare), 10 mM Hepes (Lonza), 6 mM glutamine, 100 U/mL penicilin and 100 μgr/mL streptomycin (Biochrom). Media was replaced every 2 days, and after 10 days the myoblast has fused into multinucleated myotubes showing a fusion index of 70-80%.
# Before cell treatment, a 2000× Botanicals Extracts Stocks solutions were prepared in Biological grade DMSO (Sigma) or Ultrapure H2O (milliQ; Millipore), sonicated for 30 min and Filtered using a 0.22 μm pore size syringe filter membrane (Millipore). […]
# Protein synthesis was determined by measuring the incorporation of the tritiated L-Leucine (^3H-Leu) into C2C12 cellular proteins. […] Radioactivity was measured using a liquid scintillation counter (Tri-Carb, Perkin Elmer) and expressed as decay per minute (DPM). Total protein was quantified using Bradford method-based assay (microassay procedure) following the manufacturer's instructions (Biorad protein assay, BioRad Laboratories). Protein synthesis was calculated from the trichloroacetic acid-insoluble radioactivity incorporated per microgram of total protein. Results were expressed as relative increase in L-[3H]-Leucine compared with 100% of not treated Control. […]
# [4] = molecular target: T1, recombinant rat androgen receptor (Rattus norvegicus, UniProt P15207); assay: Androgen receptor binding assay, displacement of [3H]mibolerone; conditions: concentrations of 1 to 100 μM
# T1 sequence (P15207 1-902): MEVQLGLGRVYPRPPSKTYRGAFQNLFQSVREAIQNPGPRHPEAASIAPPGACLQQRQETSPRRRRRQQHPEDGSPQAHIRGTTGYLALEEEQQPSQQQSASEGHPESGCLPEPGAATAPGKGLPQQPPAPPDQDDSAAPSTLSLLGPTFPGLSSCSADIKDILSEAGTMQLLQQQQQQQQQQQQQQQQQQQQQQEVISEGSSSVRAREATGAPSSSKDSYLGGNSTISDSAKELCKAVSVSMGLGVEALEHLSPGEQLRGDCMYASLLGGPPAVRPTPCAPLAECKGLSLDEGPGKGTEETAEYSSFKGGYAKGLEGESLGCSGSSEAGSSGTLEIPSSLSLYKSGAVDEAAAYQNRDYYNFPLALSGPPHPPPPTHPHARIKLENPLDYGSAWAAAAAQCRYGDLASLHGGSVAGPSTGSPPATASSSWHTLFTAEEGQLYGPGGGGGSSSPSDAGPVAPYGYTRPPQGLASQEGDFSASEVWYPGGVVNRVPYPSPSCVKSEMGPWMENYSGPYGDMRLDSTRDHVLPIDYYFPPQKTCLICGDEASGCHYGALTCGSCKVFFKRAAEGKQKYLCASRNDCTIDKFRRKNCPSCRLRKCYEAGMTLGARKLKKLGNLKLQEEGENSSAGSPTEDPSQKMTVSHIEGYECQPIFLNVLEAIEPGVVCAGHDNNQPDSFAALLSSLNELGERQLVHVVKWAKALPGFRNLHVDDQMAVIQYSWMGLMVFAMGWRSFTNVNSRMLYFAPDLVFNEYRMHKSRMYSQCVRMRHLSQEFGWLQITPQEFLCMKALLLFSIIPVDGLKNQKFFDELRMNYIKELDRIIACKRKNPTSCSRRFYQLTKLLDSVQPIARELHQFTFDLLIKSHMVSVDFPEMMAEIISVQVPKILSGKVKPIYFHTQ
# Protocol: Briefly, recombinant rat androgen receptor was combined with [3H]mibolerone in a buffer of 50 mM Tris-HCl, pH 7.5, 0.8 M NaCl, 10% glycerol, 2 mM dithiothreitol, 1 mg/mlL BSA, and 2% ethanol. DPM of the incubation buffer was measured to quantify displacement of the labeled ligand.
# [5] = rats fed 5 mg/kg BW for 7 days; 20HE derived from Rhaponticum carthamoides; cited from earlier work
# [6] = test system: Primary human skeletal muscle cells; assay: Protein synthesis by radio-labeled leucine incorporation in human skeletal myotubes (Example 3); conditions: 100 nM, 24 h of treatment
# Protocol: Primary human skeletal muscle cells (a gift from Dr. William Cefalu of the Pennington Biomedical Research Center, Baton Rouge, La.) were seeded at a density of 10^5 cells/cm2 onto 24-well tissue culture plates. The cells were grown in DMEM supplemented with 10% FBS and a SingleQuot Kit (Lonza, Portsmouth, N.H.) containing epidermal growth factor, insulin, bovine serum albumin (BSA), fetuin, dexamethasone, and gentamicin/amphotericin-B. Cells were grown for 96 h in 5% CO2 at 37° C. until they reached 80% confluency, and the medium was replaced with differentiation medium (DMEM with 2% horse serum). After 18 days, myoblasts fused into multinucleated myotubes. […] Additionally, extracts of spinach or Ajuga turkestanica were also added. Radio-labeled leucine was used to assess any changes in protein synthesis. Decays per minute (DPM) were measured in a liquid scintillation counter (LS 6500, Beckman Coulter). Total protein was quantified using the bicinchoninic acid (BCA) method following the manufacturer's instructions (Pierce, Rockford, Ill.). The data were expressed as DPM per milligram of total protein.
structure (smiles),measurement,setting,value
"CC(C)(O)CC[C@@H](O)[C@](C)(O)[C@H]1CC[C@@]2(O)C3=CC(=O)[C@@H]4C[C@@H](O)[C@@H](O)C[C@]4(C)[C@H]3CC[C@]12C [Example 20HE, 20-hydroxyecdysone]","protein synthesis, % of control",[1]; 40 nM,110 % of control
same,"protein synthesis, % of control (peak effect)",[1]; 0.1 μM,120 % of control
same,regulation of Caspase 3 expression,[2],significant effect in down regulation
same,protein synthesis versus the control group,[3],statistically significant increase
same,inhibition of [3H]mibolerone binding,[4],did not show any significant inhibition
same,"weight of liver, heart, kidneys and the tibialis anterior muscle",[5],increases
same,"protein synthesis, % of control",[6],120 % of control
